Converted amounts (≈) assume the structure as drawn. Counter-ions that a name gives are not always drawn.
Experiments:
[1] = Intrinsic clearance in human liver microsomes; format: in vitro ADME; settings: human, pooled human liver microsomes (50 donors), pH 7.4, human liver microsome assay; 1 μM test compound, 0.806 mg/mL protein, NADPH, pH 7.4, 37° C.; mean +/− STD Dev; read-out: CLint (μL/min/mg) (+/− STD Dev)
Method: The incubations were conducted at 37° C. […] (Sorvall RC 3C Plus, Thermo Scientific, Waltham, Mass.).

[2] = molecular target: human DGAT2 (hDGAT2) (Homo sapiens (Human), UniProt Q96PD7); experiment: In vitro DGAT2 assay, determination of IC50 values for DGAT2 inhibitors; format: biochemical; settings: hDGAT2 membrane fraction; geometric mean
Chain of human DGAT2 (hDGAT2) (Q96PD7 whole entry): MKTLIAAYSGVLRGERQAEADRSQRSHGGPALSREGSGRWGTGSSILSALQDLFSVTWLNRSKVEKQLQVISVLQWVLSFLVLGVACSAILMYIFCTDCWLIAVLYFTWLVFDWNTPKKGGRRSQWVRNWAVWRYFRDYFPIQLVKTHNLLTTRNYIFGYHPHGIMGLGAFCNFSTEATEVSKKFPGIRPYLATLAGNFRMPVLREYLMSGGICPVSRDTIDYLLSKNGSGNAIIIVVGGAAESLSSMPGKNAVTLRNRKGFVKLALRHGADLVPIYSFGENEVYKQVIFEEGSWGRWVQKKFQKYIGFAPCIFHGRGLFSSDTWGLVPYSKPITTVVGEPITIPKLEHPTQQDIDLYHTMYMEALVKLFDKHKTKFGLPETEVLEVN
Method: Recombinant baculovirus for the FLAG-tagged hDGAT2 was generated in SF9 insect cells using Bac-to-Bac baculovirus expression system (Invitrogen) according to the manufacturer's protocol. For the expression of hDGAT2, SF9 cells (20 L) grown in Sf900II media were infected with hDGAT2 baculovirus at a multiplicity of infection of 1 in a Wave Bioreactor System 20/50P wave bag (GE Healthcare). After 40 hours of infection, the cells were then harvested by centrifugation at 5,000×g. The cell pellets were washed by resuspending in phosphate buffered saline (PBS) and collected by centrifugation at 5,000×g. The cell paste was flash frozen in liquid N2 and stored at −80° C. until needed. All operations below were at 4° C. unless otherwise noted. The cells were resuspended in lysis buffer (50 mM Tris-HCl, pH 8.0, 250 mM sucrose) including 1 mM ethylenediaminetetraacetic acid (EDTA) and the complete protease inhibitor cocktail (Roche Diagnostics) at a ratio of 3 mL buffer per 1 g cell paste. The cells were lysed by dounce homogenizer. The cell debris was removed by centrifugation at 1,000×g for 20 min, and the supernatant was centrifuged at 100,000×g for 1 hour. The resulting pellet was rinsed three times by filling ultracentrifuge tubes to the top with ice cold PBS before decanting. The washed pellet was resuspended with gentle stirring for 1 hour in lysis buffer containing 8 mM 3-[(3-cholamidopropyl)dimethylammonio]-1-propanesulfonate (CHAPS) at a ratio of 1 mL buffer per 1 g of original cell paste and centrifuged again at 100,000×g for 1 hour. The resulting supernatant was aliquotted, flash frozen in liquid N2, and stored at −80° C. until use.
To 1 μL of compounds dissolved in 100% DMSO and spotted at the bottom of each well, 5 μL of 0.04% bovine serum albumin (BSA) (fatty acid free, Sigma Aldrich) was added and the mixture was incubated at room temperature for 15 minutes. hDGAT2 membrane fractions were diluted in 100 mM Hepes-NaOH, pH 7.4, 20 mM MgCl2 containing 200 nM methyl arachidonyl fluorophosphonate (Cayman Chemical; dried from ethyl acetate stock solution under argon gas and dissolved in DMSO as 5 mM stock). 10 μL of this enzyme working solution was added to the plates and incubation continued for 2 hours at room temperature. […] Plates were centrifuged at 2,000×g for 1 minute in an Allegra 6R Centrifuge (Beckman Coulter) and then were sealed again with fresh covers before reading in a 1450 Microbeta Wallac Trilux Scintillation Counter (Perkin Elmer). DGAT2 activity was measured by quantifying the generated product [^14C]tridecanoylglycerol in the upper organic phase. […]

[3] = Determination of pKa (capillary electrophoresis, Analiza, Inc.); format: physicochemical; settings: mean, read-out: Basic pKa (most basic pKa)
[4] = High throughput determination of intrinsic clearance in human hepatocytes; format: in vitro ADME; settings: human, pooled cryopreserved human hepatocytes (10 donors), high throughput human hepatocyte assay; 0.5 million cells/mL, 1 μM test compound, 37° C.; mean +/− Std Dev; read-out: CLint (μL/min/10^6 cells) (+/− Std Dev)
Method: The incubation was carried out at 37° C. […] The samples were centrifuged (Eppendorf, Hauppauge, N.Y.) at 3000 rpm for 5 min at 4° C.

[5] = molecular target: DGAT2 in human hepatocytes (Homo sapiens (Human), UniProt Q96PD7); experiment: Determination of IC50 values for DGAT2 inhibitors in human hepatocytes; format: cell-based; settings: cryopreserved human hepatocytes, DGAT1 inhibitor present; geometric mean
Chain of DGAT2 in human hepatocytes (Q96PD7 whole entry): as above
Method: For evaluation of the effects of DGAT2 inhibitors in a cell-based setting, cryopreserved human hepatocytes (Lot DOO, Celsis, Baltimore, Md.) were thawed and plated onto type I collagen-coated plates according to the manufacturer's instructions. After 18 hours overnight recovery period, the cells were overlayed with media containing 250 μg/mL Geltrex Basement Membrane Matrix (Thermo Fisher). The following day, media was aspirated and replaced with serum-free Williams Media E (Thermo Fisher) containing 400 μM sodium dodecanoate (Sigma-Aldrich, St. Louis, Mo.) and 2 mM GlutaMAX (Thermo Fisher). […] DGAT2 inhibitors were then added to the desired final concentration. After a 15 minute preincubation, 0.2 μCi [^14C(U)]-glycerol (Perkin Elmer) was added to each well followed by a 3 hour incubation. At this point the media was removed, and the cells lysed via orbital shaking in isopropyl alcohol: tetrahydrofuran (9:1) for 15 minutes prior to centrifugation at 3000 rpm for 10 minutes. Radiolabeled lipids were resolved using a solvent system by thin layer chromatography with the solvent consisting of hexanes:diethyl ether:glacial acetic acid (75:23:2, v/v/v). […] The half maximal inhibitory concentrations (IC50 values) were determined by nonlinear regression analysis of the % inhibition dose response curve using GraphPad Prism (GraphPad Software, Inc., La Jolla, Calif.). […]

[6] = Thermodynamic solubility in various biorelevant media; format: physicochemical; settings: PBS, pH 6.8; crystalline solid
Method: The solubility of active pharmaceutical ingredients is an important characteristic in determining biological performance and ease of formulation during drug development, with high solubility being preferred (Klein, S. 2010, The AAPS Journal, 12, 397-406; Di, L., et al 2012, Drug Disc. Today, 17. 486-495). A test sample of crystalline solid (˜7 mg) was combined in a vial with 1 mL of the relevant buffer solution and the mixture vortexed to combine. If the solid dissolved completely, additional solid was added with vortexing until a saturated solution was obtained. The saturated solution/solid mixture was capped and subjected to temperature cycling as follows: 1 min at 25° C., 8 h at 40° C., 5 h at 15° C. and 12 h at 25° C. The mixture was filtered in a centrifugal filtration device (0.22 μm PVDF filter, MilliporeSigma, Milwaukee, Wis.) at 13,000 rpm and the concentration of the test compound in the filtrate was determined by HPLC/UPLC with reference to a three point standard curve. Phosphate buffered saline (PBS, pH 6.8, 50 mM phosphate buffer, 250 mM NaCl). Simulated gastric fluid (SGN pH 1.2, USP recipe). Fasted state simulated intestinal fluid (FaSSIF, 3 mM sodium taurocholate, 0.75 mM phospholipid from soybean lecithin, 50 mM phosphate buffer, ionic strength adjusted to 250 mM with NaCl, pH 6.8) and fed state simulated intestinal fluid (FeSSIF, 15 mM sodium taurocholate, 3.75 mM phospholipid from soybean lecithin, 144 mM acetic acid, 50 mM phosphate buffer, ionic strength adjusted to 250 mM with NaCl, pH 6.8).

[7] = system: Western diet fed Sprague-Dawley rats; experiment: Rat western diet model: in vivo effects on plasma and hepatic triglyceride levels; settings: compared with chow-fed vehicle animals
Source text: The rat western diet model was utilized to assess the effects of DGAT2 inhibitor treatment on plasma triglyceride production and hepatic triglyceride content in vivo. Male Sprague-Dawley rats were housed under standard laboratory conditions on a 12-hour light, 12-hour dark cycle (lights on at 06:00). Two weeks prior to study start animals were placed on a high-fat, high sucrose, high-cholesterol diet (D12079b, provided by Research Diets, New Brunswick, N.J.). This diet provides ˜43% of kilocalories from carbohydrate and ˜41% of kilocalories from fat. Example 4 was administered orally as a solution (10 mL/kg dosing volume) in 0.5% methylcellulose in deionized water, pH 7.0-7.5 (methylcellulose was obtained from Sigma-Aldrich, St. Louis, Mo.). […] Plasma TG levels were determined using a Roche Hitachi Chemistry analyzer according to the manufacturer's instructions (Roche Diagnostics Corporation, Indianapolis, Ind.) and data was analyzed using GraphPad Prism (GraphPad Software, Inc., La Jolla, Calif.). […] The triglyceride assay was performed through absorbance and reported as milligrams per deciliter. […]
FIG. 4 plots the multiple dose effects of Example 4 on Plasma Triglyceride in Western Diet Fed Sprague-Dawley Rats where plasma triglyceride levels were determined from blood drawn from the lateral tail vein 2-hours following the final dose of Example 4. […]

microsomal CLint at 1 μM [1] | IC50 [2] | pKa [3] | hepatocyte CLint at 1 μM [4] | IC50 [5] | Solubility [6] | SMILES | circulating triglyceride response, resulting levels [7]
< 7 µL/min/mg | 40 nM | 8.1 | < 1.9 µL/min/1e6 cells | 23 nM |  | CCOc1cccnc1Oc1cncc(-c2ncc(C(=O)N[C@@H]3CNCC[C@@H]3F)cn2)c1 [Example 3, 2-{5-[(3-Ethoxypyridin-2-yl)oxy]pyridin-3-yl}-N-[(3R,4S)-4-fluoropiperidin-3-yl]pyrimidine-5-carboxamide, bis(trifluoroacetate) Salt] | 
 |  |  |  |  | 580 µg/mL (≈ 1320 µM) | CCOc1cccnc1Oc1cncc(-c2ncc(C(=O)N[C@@H]3CNC[C@@H](F)C3)cn2)c1 [Example 4, 2-{5-[(3-Ethoxypyridin-2-yl)oxy]pyridin-3-yl}-N-[(3S,5S)-5-fluoropiperidin-3-yl]pyrimidine-5-carboxamide] | approached those of the chow-fed vehicle animals
